Consider five compounds from ChEMBL document CHEMBL3046734, “Molecular insights to explore abietane diterpenes as new LOX inhibitors” (Med Chem Res, 2013).

Assay [1] in a line: Inhibition of Soybean LOX using linoleic acid as substrate incubated for 5 mins prior to substrate addition measured after 10 mins by spectrophotometric analysis. On the set-up: species or system Glycine max.
Assay [2] in a line: Inhibition of LOX (unknown origin). On the set-up: species or system Homo sapiens.

For orientation: IC50 means the concentration needed to halve the response being measured. High values mean a need for much substance, low ones inhibition by little substance.

As to `O=c1cc(-c2ccccc2)oc2cc(O)c(O)c(O)c12` [BAICALEIN], in assay [1], it took 22.1 µM to reach half-maximal inhibition (IC50). As for `NC(=O)n1c(O)c(C(=O)c2cccs2)c2cc(Cl)ccc21` [TANIDAP SODIUM], in assay [1], the half-inhibitory concentration (IC50) worked out at 41.6 µM. Same read-out and setting: as for `COc1c(C(C)C)cc2c(c1O)C=C1C=CC(=O)C(C)(C)C1CC2=O` (stereo not given) [TAXAMAIRIN F], the figure is 73 µM. In the case of `COc1c(C(C)C)cc2c(c1O)[C@@]1(C)CCC(=O)C(C)(C)[C@@H]1CC2=O` [TAXUSABIETANE A], inhibition in assay [2] was half-maximal at 57 µM (IC50). In turn, `COc1c(C(C)C)cc2c(c1OC)[C@@]13CCC(=O)C(C)(C)[C@@H]1[C@H](OC3=O)C2=O` [TAXUSABIETANE C] came in with an IC50 in assay [1] of 69 µM.
